The record followed here is patent US7452887B2, “Quinoline- and isoquinoline-based compounds exhibiting ATP-utilizing enzyme inhibitory activity, and compositions, and uses thereof” (Amphora Discovery Corporation, priority 2004, dated 2008).

Holding throughout (assay): HTS ATP-utilizing enzyme assay, off-chip mobility-shift (Caliper HTS 250)
What all share (conditions): test compound 10 μM, kinase listed = active (greater than six-sigma from the mean activity of inactive compounds)

In one experiment the test system is CK2. It is filed as biochemical, human. From the text: The following procedures describe the reagent and plate preparation for a HTS of an ATP-utilizing enzyme, such as a protein kinase, run in an off-chip mobility-shift assay format. The following provides an HTS protocol for running a protein kinase HTS screen on a Caliper HTS 250 microfluidics system. The following parameters are dependent on the protein kinase used and can be determined by one skilled in the art as part of a typical assay development process. For example, the peptide substrate used can be identified from the current literature, by screening a peptide library of potential protein kinase substrates, or by other applicable means accepted in the field.
The following table provides typical screen assay parameters appropriate for a Caliper HTS 250 microfluidics system.
The reagents and buffers listed in the following table are generally applicable for developing and running an HTS screen on a human protein kinase using the Caliper HTS 250 system.
The following reagents were prepared using the previously described buffers.
A 2× Master Buffer solution was prepared by combining 200 mL of 1 M HEPES, pH 7.5, 2 mL of 10% Triton X-100, 20 mL of 10% BSA, and 778 mL of H2O.
A 2.5× Substrate Buffer solution was prepared by combining 177.408 mL of 2× Master Buffer, 0.887 mL of 1 mM peptide-X, and 176.521 mL of H2O.
A 1.55× Termination Buffer solution was prepared by combining 762.05 mL of 2× Master Buffer, 95.1 mL of 0.5 M EDTA, and 666.94 mL of H2O. […]
Assays to determine the kinase inhibitory activity of compounds of the present disclosure were performed using a Caliper HTS 250 microfluidics device, Greiner U-bottom assay plates, a Multidrop for transfer of reagents, and Biomek FX (AMNCBM03) software. […] The inhibition of the ATP-utilizing enzyme, such as a particular protein kinase, was determined by measuring the ratio of the peptide substrate to phosphorylated product for each well of the assay plate using the Caliper HTS 250 system. […]

The next experiment deals with MAPKAPK2 (Homo sapiens, UniProt P49137). It is filed as biochemical. The gist of the method: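 Single-point screen of test compound at 10 μM against MAPKAPK2 with peptide substrate in HEPES pH 7.5 buffer (Triton X-100, BSA), 2.5 h at 20-22 °C. Substrate-to-phosphopeptide ratio was read by off-chip microfluidic mobility shift; EDTA and DMSO wells defined 100% and 0% controls, hits by six-sigma limits.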
Sequence of MAPKAPK2 (P49137 whole entry): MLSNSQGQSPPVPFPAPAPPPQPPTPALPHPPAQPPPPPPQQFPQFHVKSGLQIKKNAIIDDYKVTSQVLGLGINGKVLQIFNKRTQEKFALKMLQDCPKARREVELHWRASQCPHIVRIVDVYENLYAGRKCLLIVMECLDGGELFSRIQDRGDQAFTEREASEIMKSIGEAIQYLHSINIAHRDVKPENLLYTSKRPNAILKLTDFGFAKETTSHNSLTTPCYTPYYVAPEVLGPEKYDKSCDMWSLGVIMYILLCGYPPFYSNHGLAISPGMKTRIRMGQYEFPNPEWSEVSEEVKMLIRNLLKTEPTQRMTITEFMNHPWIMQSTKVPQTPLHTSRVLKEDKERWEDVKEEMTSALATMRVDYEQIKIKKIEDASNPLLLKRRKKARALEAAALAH

In a further experiment the target is T1, PRAK (Homo sapiens, UniProt Q8IW41).
T1 sequence (Q8IW41 1-473): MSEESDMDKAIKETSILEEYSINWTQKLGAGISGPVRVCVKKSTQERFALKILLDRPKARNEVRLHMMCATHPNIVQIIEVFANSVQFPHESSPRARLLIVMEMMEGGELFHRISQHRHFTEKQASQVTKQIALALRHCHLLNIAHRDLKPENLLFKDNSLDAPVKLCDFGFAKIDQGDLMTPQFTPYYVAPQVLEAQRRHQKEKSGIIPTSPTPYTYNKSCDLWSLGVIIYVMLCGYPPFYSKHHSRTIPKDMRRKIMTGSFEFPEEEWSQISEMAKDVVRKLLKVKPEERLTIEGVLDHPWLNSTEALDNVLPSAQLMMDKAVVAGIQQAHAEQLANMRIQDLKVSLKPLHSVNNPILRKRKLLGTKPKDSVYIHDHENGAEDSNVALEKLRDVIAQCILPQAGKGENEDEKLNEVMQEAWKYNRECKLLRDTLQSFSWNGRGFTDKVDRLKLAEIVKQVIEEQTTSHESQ
It is filed as biochemical. The gist of the method:
(§1)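 Test compound at 10 μM final was incubated with kinase and peptide substrate in HEPES pH 7.5 buffer with Triton X-100 and BSA for 2.5 hrs at 20° C. to 22° C., then stopped with EDTA. Inhibition came from the substrate-to-phosphorylated-product ratio on a microfluidic mobility-shift read. EDTA wells served as 100% control.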

For the next experiment, the target named is AKT3 (Homo sapiens, UniProt Q9Y243). It is filed as biochemical. The gist of the method: as §1
The target in another experiment is LCK (Homo sapiens, UniProt P06239). It is filed as biochemical. The gist of the method: as §1
Sequence of LCK (P06239 whole entry): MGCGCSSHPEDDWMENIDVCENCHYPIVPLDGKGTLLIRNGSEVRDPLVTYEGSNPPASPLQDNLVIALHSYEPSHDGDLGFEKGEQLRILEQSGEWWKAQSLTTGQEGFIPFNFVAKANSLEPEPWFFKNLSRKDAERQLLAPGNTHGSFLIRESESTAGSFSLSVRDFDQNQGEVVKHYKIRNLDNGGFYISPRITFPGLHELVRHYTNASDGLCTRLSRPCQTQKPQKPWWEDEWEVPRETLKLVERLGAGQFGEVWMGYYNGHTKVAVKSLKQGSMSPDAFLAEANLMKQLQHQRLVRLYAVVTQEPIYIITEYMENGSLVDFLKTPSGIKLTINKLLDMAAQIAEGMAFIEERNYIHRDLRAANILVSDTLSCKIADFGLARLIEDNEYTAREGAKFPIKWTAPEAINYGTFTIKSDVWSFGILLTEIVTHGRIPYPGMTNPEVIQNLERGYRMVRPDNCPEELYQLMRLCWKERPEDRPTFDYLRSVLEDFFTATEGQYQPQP
For the next experiment, the target named is SRC (Homo sapiens, UniProt P12931). In kind it is biochemical. In outline: as §1
Sequence of SRC (P12931 whole entry): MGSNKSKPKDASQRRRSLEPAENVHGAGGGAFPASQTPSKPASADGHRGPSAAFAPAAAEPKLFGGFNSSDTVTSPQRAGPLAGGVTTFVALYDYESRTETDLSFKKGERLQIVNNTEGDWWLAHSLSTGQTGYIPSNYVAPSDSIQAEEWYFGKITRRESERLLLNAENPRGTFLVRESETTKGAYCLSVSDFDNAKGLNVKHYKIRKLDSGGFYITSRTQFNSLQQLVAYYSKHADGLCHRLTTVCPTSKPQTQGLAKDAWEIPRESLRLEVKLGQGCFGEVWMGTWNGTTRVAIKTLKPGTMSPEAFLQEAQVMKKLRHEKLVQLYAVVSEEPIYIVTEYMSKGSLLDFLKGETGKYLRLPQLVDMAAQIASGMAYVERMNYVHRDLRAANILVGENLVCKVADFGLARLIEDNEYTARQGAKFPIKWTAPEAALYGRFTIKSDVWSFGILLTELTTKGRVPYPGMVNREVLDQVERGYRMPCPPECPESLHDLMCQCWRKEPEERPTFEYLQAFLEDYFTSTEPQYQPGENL
The next experiment has as its target ABL1 (Homo sapiens, UniProt P00519). It is filed as biochemical. The gist of the method: as §1
For a further experiment, the target named is KIT (Homo sapiens, UniProt P10721). It is filed as biochemical. The gist of the method:
as §1

A further experiment addresses CDK1/cyclin B (Homo sapiens, UniProt P06493). In kind it is biochemical. The gist of the method:
as §1

The target of a further experiment is CHEK2 (Homo sapiens, UniProt O96017). It is filed as biochemical. In outline: as §1
Sequence of CHEK2 (O96017 whole entry): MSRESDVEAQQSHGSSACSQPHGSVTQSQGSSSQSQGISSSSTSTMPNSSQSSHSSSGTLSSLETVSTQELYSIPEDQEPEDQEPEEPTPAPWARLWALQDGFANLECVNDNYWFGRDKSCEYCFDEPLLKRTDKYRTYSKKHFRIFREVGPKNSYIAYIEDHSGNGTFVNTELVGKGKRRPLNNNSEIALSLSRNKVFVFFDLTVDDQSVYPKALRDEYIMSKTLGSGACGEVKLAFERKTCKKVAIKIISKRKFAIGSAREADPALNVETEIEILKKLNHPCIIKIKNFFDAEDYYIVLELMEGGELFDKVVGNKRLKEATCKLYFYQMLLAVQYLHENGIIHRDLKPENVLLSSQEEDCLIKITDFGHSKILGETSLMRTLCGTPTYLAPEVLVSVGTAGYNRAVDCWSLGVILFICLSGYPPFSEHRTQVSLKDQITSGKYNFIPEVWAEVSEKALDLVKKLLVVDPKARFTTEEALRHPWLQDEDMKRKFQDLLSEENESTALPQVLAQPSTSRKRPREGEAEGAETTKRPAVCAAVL
In the next experiment the target is CDK2/cyclin A (Homo sapiens, UniProt P24941). In kind it is biochemical. The gist of the method: as §1
The next experiment concerns the target T2, NEK2 (Homo sapiens, UniProt P51955).
T2 sequence (P51955 1-445): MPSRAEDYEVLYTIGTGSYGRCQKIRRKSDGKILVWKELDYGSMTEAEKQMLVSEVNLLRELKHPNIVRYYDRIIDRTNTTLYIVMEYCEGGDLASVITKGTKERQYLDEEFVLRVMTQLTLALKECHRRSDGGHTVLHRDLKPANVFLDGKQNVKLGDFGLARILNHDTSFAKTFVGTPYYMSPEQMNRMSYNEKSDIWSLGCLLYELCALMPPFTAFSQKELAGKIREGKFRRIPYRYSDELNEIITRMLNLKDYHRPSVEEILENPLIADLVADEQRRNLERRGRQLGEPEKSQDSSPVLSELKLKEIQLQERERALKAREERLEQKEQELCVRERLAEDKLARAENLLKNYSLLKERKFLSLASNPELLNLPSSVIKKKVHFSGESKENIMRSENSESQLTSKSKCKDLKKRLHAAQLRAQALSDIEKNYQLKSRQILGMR
In kind it is biochemical. The gist of the method: as §1

The target in a further experiment is C-TAK1 (Homo sapiens, UniProt P27448). It is filed as biochemical. In outline:
as §1

A further experiment has as its target SYK (Homo sapiens, UniProt P43405). In kind it is biochemical. The gist of the method: as §1
The target of the next experiment is LYNA (Homo sapiens, UniProt P07948). It is filed as biochemical. In outline: as §1
Another experiment has as its target GSK3-α (Homo sapiens, UniProt P49840). It is filed as biochemical. The gist of the method: as §1

The structures appear in SMILES notation.

Sequence of C-TAK1 (P27448 whole entry): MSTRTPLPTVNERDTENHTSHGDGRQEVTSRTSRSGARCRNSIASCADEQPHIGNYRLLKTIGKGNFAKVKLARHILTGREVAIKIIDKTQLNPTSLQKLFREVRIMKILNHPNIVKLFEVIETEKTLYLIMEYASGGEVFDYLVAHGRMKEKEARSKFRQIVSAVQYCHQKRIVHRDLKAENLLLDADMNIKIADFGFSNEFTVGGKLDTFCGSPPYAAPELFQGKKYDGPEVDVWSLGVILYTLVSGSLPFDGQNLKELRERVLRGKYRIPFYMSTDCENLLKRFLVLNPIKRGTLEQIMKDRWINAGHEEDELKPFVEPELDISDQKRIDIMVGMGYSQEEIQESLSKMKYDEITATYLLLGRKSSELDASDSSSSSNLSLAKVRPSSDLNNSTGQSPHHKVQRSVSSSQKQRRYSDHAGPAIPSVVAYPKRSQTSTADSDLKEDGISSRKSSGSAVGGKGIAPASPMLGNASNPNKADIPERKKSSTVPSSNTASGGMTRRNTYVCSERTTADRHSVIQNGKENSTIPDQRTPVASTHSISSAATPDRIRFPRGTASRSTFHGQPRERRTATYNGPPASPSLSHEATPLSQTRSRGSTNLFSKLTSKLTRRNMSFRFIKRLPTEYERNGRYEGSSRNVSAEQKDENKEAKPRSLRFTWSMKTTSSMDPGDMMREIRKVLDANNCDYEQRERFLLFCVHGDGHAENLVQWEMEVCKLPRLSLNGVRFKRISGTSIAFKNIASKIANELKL
Sequence of ABL1 (P00519 whole entry): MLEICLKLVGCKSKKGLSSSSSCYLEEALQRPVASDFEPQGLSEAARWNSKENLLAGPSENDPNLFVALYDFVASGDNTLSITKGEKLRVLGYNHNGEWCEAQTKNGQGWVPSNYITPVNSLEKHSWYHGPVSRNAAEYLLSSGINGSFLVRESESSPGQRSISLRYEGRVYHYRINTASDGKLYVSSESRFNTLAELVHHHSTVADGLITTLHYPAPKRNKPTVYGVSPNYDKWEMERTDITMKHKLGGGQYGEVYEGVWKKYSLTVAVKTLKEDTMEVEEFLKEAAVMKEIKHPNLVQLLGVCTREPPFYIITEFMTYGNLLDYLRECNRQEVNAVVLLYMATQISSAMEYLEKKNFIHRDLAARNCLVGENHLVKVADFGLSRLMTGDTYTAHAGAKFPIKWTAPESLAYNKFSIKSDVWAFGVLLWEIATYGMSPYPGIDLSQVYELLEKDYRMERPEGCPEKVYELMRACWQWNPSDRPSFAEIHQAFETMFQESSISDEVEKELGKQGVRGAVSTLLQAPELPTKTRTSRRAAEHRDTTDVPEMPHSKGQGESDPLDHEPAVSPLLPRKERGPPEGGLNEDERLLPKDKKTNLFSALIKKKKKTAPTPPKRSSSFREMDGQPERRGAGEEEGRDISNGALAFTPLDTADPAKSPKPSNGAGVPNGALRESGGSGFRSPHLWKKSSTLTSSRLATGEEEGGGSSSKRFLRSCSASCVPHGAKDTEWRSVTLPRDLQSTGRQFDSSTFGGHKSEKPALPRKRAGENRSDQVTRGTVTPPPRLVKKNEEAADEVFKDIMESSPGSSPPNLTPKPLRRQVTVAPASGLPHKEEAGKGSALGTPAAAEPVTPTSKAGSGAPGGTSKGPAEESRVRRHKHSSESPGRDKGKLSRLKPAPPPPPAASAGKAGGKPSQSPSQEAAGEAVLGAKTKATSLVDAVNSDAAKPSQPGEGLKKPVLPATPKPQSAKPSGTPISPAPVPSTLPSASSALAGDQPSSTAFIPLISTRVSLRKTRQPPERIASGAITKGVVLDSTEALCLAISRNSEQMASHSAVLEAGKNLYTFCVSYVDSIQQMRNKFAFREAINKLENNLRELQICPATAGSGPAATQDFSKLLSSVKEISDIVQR
Sequence of CDK1/cyclin B (P06493 whole entry): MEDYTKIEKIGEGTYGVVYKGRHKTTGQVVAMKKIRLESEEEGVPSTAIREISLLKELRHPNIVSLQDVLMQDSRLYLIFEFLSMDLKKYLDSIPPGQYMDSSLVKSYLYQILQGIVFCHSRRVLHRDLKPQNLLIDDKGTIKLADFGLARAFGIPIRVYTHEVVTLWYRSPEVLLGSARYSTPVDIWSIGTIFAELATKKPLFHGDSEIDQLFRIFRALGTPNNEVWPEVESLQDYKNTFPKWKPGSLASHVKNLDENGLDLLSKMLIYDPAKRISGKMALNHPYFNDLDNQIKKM
Sequence of CDK1/cyclin B (P14635 whole entry partner): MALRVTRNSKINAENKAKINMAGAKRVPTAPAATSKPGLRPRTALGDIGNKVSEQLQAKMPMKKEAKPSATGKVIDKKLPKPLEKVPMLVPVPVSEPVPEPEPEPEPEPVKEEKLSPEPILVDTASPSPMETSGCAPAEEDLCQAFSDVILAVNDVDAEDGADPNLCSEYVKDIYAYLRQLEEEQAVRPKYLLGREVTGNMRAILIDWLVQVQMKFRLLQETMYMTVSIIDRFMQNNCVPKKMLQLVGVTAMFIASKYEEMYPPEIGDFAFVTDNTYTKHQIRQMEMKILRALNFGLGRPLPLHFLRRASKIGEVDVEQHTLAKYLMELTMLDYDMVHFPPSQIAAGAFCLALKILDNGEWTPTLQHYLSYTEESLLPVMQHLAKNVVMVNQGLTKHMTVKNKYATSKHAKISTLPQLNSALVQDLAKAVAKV

Regarding `CN1CCN(c2ccc(Nc3ccnc4ccc(-c5cccc(C(=O)O)c5)cc34)cc2)CC1` [3-(4-(4-(4-methylpiperazin-1-yl)phenylamino)quinolin-6-yl)benzoic acid], the Activity entry was “CK2” in the experiment with CK2, “MAPKAPK2” on MAPKAPK2 and “PRAK” at PRAK.
As for `CN1CCN(c2ccc(Nc3ccnc4ccc(-c5cccc(O)c5)cc34)cc2)CC1` [3-(4-(4-(4-methylpiperazin-1-yl)phenylamino)quinolin-6-yl)phenol], the Activity entry on MAPKAPK2 was “MAPKAPK2”; on AKT3 it was “AKT3”; on PRAK it was “PRAK”; on LCK, “LCK”; on SRC, “SRC”; at ABL1 it was “ABL1”.
Turning to `CNC1CCN(c2ccc(Nc3ccnc4ccc(-c5ccc(C#N)cc5)cc34)cc2)C1` (centres unmarked) [4-(4-(4-(3-(methylamino)pyrrolidin-1-yl)phenylamino)quinolin-6-yl)benzonitrile], the figures for the Activity result at PRAK, at KIT and on CDK1/cyclin B were “PRAK”, “KIT” and “CDK1/cyclin B”, respectively.
On to `CN1CCN(c2ccc(Nc3ccnc4ccc(-c5ccc(Cl)c(Cl)c5)cc34)cc2)CC1` [6-(3,4-dichlorophenyl)-N-(4-(4-methylpiperazin-1-yl)phenyl)quinolin-4-amine], for which the Activity entry at MAPKAPK2 is “MAPKAPK2”; on CHEK2, “CHEK2”; at PRAK, “PRAK”; on CDK2/cyclin A, “CDK2/cyclin A”; at NEK2 it was “NEK2”; at C-TAK1 it was “C-TAK1”.
Take `CN1CCN(c2ccc(Nc3ccnc4ccc(-c5cccc(OCc6ccccc6)c5)cc34)cc2)CC1` [6-(3-(benzyloxy)phenyl)-N-(4-(4-methylpiperazin-1-yl)phenyl)quinolin-4-amine]: the Activity entry is “MAPKAPK2” at MAPKAPK2; “CHEK2” on CHEK2; “PRAK” on PRAK; “CDK2/cyclin A” on CDK2/cyclin A; “C-TAK1” on C-TAK1.
On to `CN1CCN(c2ccc(Nc3ccnc4ccc(-c5ccc(OCc6ccccc6)c(F)c5)cc34)cc2)CC1` [6-(4-(benzyloxy)-3-fluorophenyl)-N-(4-(4-methylpiperazin-1-yl)phenyl)quinolin-4-amine], for which the Activity result on MAPKAPK2 is given as “MAPKAPK2”; at SYK it was “SYK”; at SRC, “SRC”; at C-TAK1, “C-TAK1”.
Consider `CN1CCN(c2ccc(Nc3ccnc4ccc(-c5ccccc5-c5ccccc5)cc34)cc2)CC1` [6-(biphenyl-2-yl)-N-(4-(4-methylpiperazin-1-yl)phenyl)quinolin-4-amine], for which the Activity entry on LYNA is “LYNA”; on PRAK, “PRAK”; on LCK, “LCK”; at NEK2, “NEK2”; at ABL1, “ABL”.
Consider `CN1CCN(c2ccc(Nc3ccnc4ccc(-c5ccccc5C(F)(F)F)cc34)cc2)CC1` [N-(4-(4-methylpiperazin-1-yl)phenyl)-6-(2-(trifluoromethyl)phenyl)quinolin-4-amine], for which the Activity entry in the experiment with CK2 is reported as “CK2”; at MAPKAPK2 it was “MAPKAPK2”; on PRAK it was “PRAK”; on NEK2, “NEK2”.
As to `CN1CCN(c2ccc(Nc3ccnc4ccc(-c5cccs5)cc34)cc2)CC1` [N-(4-(4-methylpiperazin-1-yl)phenyl)-6-(thiophen-2-yl)quinolin-4-amine], the Activity entry is recorded as “MAPKAPK2” at MAPKAPK2; “CHEK2” on CHEK2; “PRAK” on PRAK; “CDK2/cyclin A” on CDK2/cyclin A; “GSK3-α” at GSK3-α.
